# Reference: ChEMBL document CHEMBL6182876, “Design, synthesis and preliminary structure-activity relationship of 2-iminothiazolidine-4-one derivatives against Schistosoma japonicum in vitro and in vivo” (Eur J Med Chem, 2025)
# Calls of active or inactive are those of the source. The calls are words filed in the database; no cut-off is given here.
# Key:
# Schistosoma japonicum [1] = test: Anti-schistosomal activity against male adult Schistosoma japonicum assessed as appearance of sensory papillae at 25 uM measured for 72 hrs by SEM analysis; format: functional, organism-based
# Schistosoma japonicum [2] = test: Anti-schistosomal activity against male adult Schistosoma japonicum assessed as appearance of degradation of subtegumental matrix at 25 uM measured for 72 hrs by SEM analysis; format: functional, organism-based
# Schistosoma japonicum [3] = test: Anti-schistosomal activity against adult Schistosoma japonicum infected in ICR mouse assessed as reduction in worm burden at 25 mg/kg, ip administered for 7 days; format: functional; parameters: scale not given: the % may be the effect or the level left; conditions: time 7 day
# Schistosoma japonicum [4] = test: Anti-schistosomal activity against juvenile Schistosoma japonicum infected in ICR mouse assessed as reduction in worm burden at 25 mg/kg, ip administered for 7 days; format: functional; parameters: scale not given: the % may be the effect or the level left; conditions: time 7 day
# Schistosoma japonicum [5] = test: Anti-schistosomal activity against adult Schistosoma japonicum assessed as reduction in oviposition at 50 uM incubated for 72 hrs by optical microscopic analysis; format: functional, organism-based
# Schistosoma japonicum [6] = test: Anti-schistosomal activity against juvenile Schistosoma japonicum infected in ICR mouse assessed as accumulation of inflammatory cells at 25 mg/kg, ip administered for 7 days; format: functional, organism-based; conditions: time 7.0 day
# Schistosoma japonicum [7] = test: Anti-schistosomal activity against adult Schistosoma japonicum assessed as muscle contractions at 50 uM incubated for 1 to 72 hrs by optical microscopic analysis; format: functional, organism-based; conditions: time 1-72 hrs
# [8] = Toxicity in ICR mouse infected with Schistosoma japonicum assessed as serum BUN level at 25 mg/kg, ip administered for 7 days; format: organism-based; conditions: in vivo, 168 h, time 7 day
# Schistosoma japonicum [9] = test: Anti-schistosomal activity against adult Schistosoma japonicum assessed as disintegration of tegument at 25 uM measured for 72 hrs by SEM analysis; format: functional, organism-based
# [10] = Acute toxicity in ICR mouse assessed as liver damage at 1144 mg/kg, po administered for 7 days by H and E staining based analysis; format: organism-based; conditions: in vivo, 168 h, time 7 day
# Schistosoma japonicum [11] = test: Anti-schistosomal activity against adult Schistosoma japonicum assessed as worm mortality at 100 uM measured at 24 hrs relative to control; format: functional
# [12] = Acute toxicity in po dosed ICR mouse assessed as lethal dose; format: organism-based; conditions: in vivo
# Schistosoma japonicum [13] = test: Anti-schistosomal activity against adult Schistosoma japonicum assessed as collapse of sucker musculature at 25 uM measured for 72 hrs by SEM analysis; format: functional, organism-based
# Schistosoma japonicum [14] = test: Anti-schistosomal activity against adult Schistosoma japonicum measured at 72 hrs; format: functional, organism-based
# Schistosoma japonicum [15] = test: Anti-schistosomal activity against adult Schistosoma japonicum assessed as worm mortality at 100 uM measured at 48 hrs relative to control; format: functional
# Schistosoma japonicum [16] = test: Anti-schistosomal activity against male adult Schistosoma japonicum assessed as appearance of intact tegument surface at 25 uM measured for 72 hrs by SEM analysis; format: functional, organism-based
# Schistosoma japonicum [17] = test: Anti-schistosomal activity against male adult Schistosoma japonicum assessed as disruption of tegument spines on the oral suckers at 25 uM measured for 72 hrs by SEM analysis; format: functional, organism-based
# [18] = Acute toxicity in ICR mouse assessed as TBIL level at 1144 mg/kg, po administered for 7 days; format: organism-based; conditions: in vivo, 168 h, time 7 day
# Schistosoma japonicum [19] = test: Anti-schistosomal activity against adult Schistosoma japonicum assessed as worm mortality at 100 uM measured at 8 hrs relative to control; format: functional
# Schistosoma japonicum [20] = test: Anti-schistosomal activity against adult Schistosoma japonicum assessed as worm mortality at 100 uM measured at 72 hrs relative to control; format: functional
# [21] = Acute toxicity in ICR mouse assessed as BUN level at 1144 mg/kg, po administered for 7 days; format: organism-based; conditions: in vivo, 168 h, time 7 day
# [22] = Acute toxicity in ICR mouse assessed as ALT level at 1144 mg/kg, po administered for 7 days; format: organism-based; conditions: in vivo, 168 h, time 7 day
# Schistosoma japonicum [23] = test: Anti-schistosomal activity against adult Schistosoma japonicum assessed as worm mortality at 100 uM measured at 12 hrs relative to control; format: functional
# Schistosoma japonicum [24] = test: Anti-schistosomal activity against male adult Schistosoma japonicum assessed as appearance of parallel wrinkles at 25 uM measured for 72 hrs by SEM analysis; format: functional, organism-based
# Schistosoma japonicum [25] = test: Anti-schistosomal activity against male adult Schistosoma japonicum assessed as surface destabilization at 25 uM measured for 72 hrs by SEM analysis; format: functional, organism-based
# Schistosoma japonicum [26] = test: Anti-schistosomal activity against juvenile Schistosoma japonicum infected in ICR mouse assessed as number of eggs in hepatocyte at 25 mg/kg, ip administered for 7 days; format: functional, organism-based; conditions: time 7.0 day
# Schistosoma japonicum [27] = test: Anti-schistosomal activity against juvenile Schistosoma japonicum infected in ICR mouse assessed as number of worms at 25 mg/kg, ip administered for 7 days; format: functional; conditions: time 7 day
# Schistosoma japonicum [28] = test: Anti-schistosomal activity against female adult Schistosoma japonicum assessed as loss of tegumental architecture at 25 uM measured after 72 hrs by SEM analysis; format: functional, organism-based
# Schistosoma japonicum [29] = test: Anti-schistosomal activity against adult Schistosoma japonicum assessed as mortality by measuring body twisting at 50 uM incubated for 1 to 72 hrs by optical microscopic analysis; format: functional, organism-based; conditions: time 1-72 hrs
# Schistosoma japonicum [30] = test: Anti-schistosomal activity against adult Schistosoma japonicum assessed as worm mortality at 100 uM measured at 4 hrs relative to control; format: functional
# Schistosoma japonicum [31] = test: Anti-schistosomal activity against male adult Schistosoma japonicum assessed as complete loss of sucker-associated muscular architecture at 25 uM measured for 72 hrs by SEM analysis; format: functional, organism-based
# Schistosoma japonicum [32] = test: Anti-schistosomal activity against adult Schistosoma japonicum infected in ICR mouse assessed as number of worms at 25 mg/kg, ip administered for 7 days; format: functional; conditions: time 7 day
# Schistosoma japonicum [33] = test: Anti-schistosomal activity against male adult Schistosoma japonicum assessed as loss of tegumental architecture at 25 uM measured after 72 hrs by SEM analysis; format: functional, organism-based
# [34] = Acute toxicity in ICR mouse assessed as AST level at 1144 mg/kg, po administered for 7 days; format: organism-based; conditions: in vivo, 168 h, time 7 day
# Schistosoma japonicum [35] = test: Anti-schistosomal activity against adult Schistosoma japonicum assessed as darkened body pigmentation at 50 uM incubated for 1 to 72 hrs by optical microscopic analysis; format: functional, organism-based; conditions: time 1-72 hrs
# Schistosoma japonicum [36] = test: Anti-schistosomal activity against juvenile Schistosoma japonicum infected in ICR mouse assessed as cellular vacuolization at 25 mg/kg, ip administered for 7 days; format: functional, organism-based; conditions: time 7.0 day
structure (smiles),measurement,setting,value
CCOC(=O)/C=C1\S/C(=N\c2ccc(C(F)(F)F)cc2)N(CCCN2CCN(C)CC2)C1=O,Activity,Schistosoma japonicum [1],Active
same,Activity,Schistosoma japonicum [2],Active
same,Activity,Schistosoma japonicum [3],52%
same,Activity,Schistosoma japonicum [4],26%
same,Activity,Schistosoma japonicum [5],Active
same,Activity,Schistosoma japonicum [6],Active
same,Activity,Schistosoma japonicum [7],Active
same,Activity,[8],7.22 mM
same,Activity,Schistosoma japonicum [9],Active
same,Activity,[10],Non-toxic
same,mortality at 100 µM,Schistosoma japonicum [11],100%
same,LD50,[12],1400 mg/kg
same,Activity,Schistosoma japonicum [13],Active
same,IC50,Schistosoma japonicum [14],25.3 µM
same,mortality at 100 µM,Schistosoma japonicum [15],100%
same,Activity,Schistosoma japonicum [16],Active
same,Activity,Schistosoma japonicum [17],Active
same,Activity,[18],3.24 µM
same,mortality at 100 µM,Schistosoma japonicum [19],50%
same,mortality at 100 µM,Schistosoma japonicum [20],100%
same,Activity,[21],9.6 mM
same,Activity,[22],142 U/L
same,mortality at 100 µM,Schistosoma japonicum [23],100%
same,Activity,Schistosoma japonicum [24],Active
same,Activity,Schistosoma japonicum [25],Active
same,Activity,Schistosoma japonicum [26],Active
same,Activity,Schistosoma japonicum [27],32%
same,Activity,Schistosoma japonicum [28],Active
same,Activity,Schistosoma japonicum [29],Active
same,mortality at 100 µM,Schistosoma japonicum [30],20%
same,Activity,Schistosoma japonicum [31],Active
same,Activity,Schistosoma japonicum [32],24%
same,Activity,Schistosoma japonicum [33],Active
same,Activity,[34],41 U/L
same,Activity,Schistosoma japonicum [35],Active
same,Activity,Schistosoma japonicum [36],Active
